Literature values as cited in patent US20170002035A1, “NOVEL CRYSTALLINE FORMS OF AN ANTIVIRAL BENZIMIDAZOLE COMPOUND” (GlaxoSmithKline LLC, priority 1998, published 2017).

Settings: amorphous material as disclosed in WO96/01833

hygroscopicity: hygroscopic
SMILES: CC(C)Nc1nc2cc(Cl)c(Cl)cc2n1[C@H]1O[C@@H](CO)[C@H](O)[C@@H]1O [Form 1263W94, 5,6-dichloro-2-(isopropylamino)-1-(β-L-ribofuranosyl)-1H-benzimidazole]
